Data on twelve compounds can be found in ChEMBL document CHEMBL2346538, “Synthesis, cyclooxygenase inhibitory effects, and molecular modeling study of 4-aryl-5-(4-(methylsulfonyl)phenyl)-2-alkylthio and -2-alkylsulfonyl-1H-imidazole derivatives” (Bioorg Med Chem, 2013).

The target in the test is T1, Prostaglandin G/H synthase 2 (Homo sapiens, UniProt P35354).
T1 sequence (P35354 whole entry): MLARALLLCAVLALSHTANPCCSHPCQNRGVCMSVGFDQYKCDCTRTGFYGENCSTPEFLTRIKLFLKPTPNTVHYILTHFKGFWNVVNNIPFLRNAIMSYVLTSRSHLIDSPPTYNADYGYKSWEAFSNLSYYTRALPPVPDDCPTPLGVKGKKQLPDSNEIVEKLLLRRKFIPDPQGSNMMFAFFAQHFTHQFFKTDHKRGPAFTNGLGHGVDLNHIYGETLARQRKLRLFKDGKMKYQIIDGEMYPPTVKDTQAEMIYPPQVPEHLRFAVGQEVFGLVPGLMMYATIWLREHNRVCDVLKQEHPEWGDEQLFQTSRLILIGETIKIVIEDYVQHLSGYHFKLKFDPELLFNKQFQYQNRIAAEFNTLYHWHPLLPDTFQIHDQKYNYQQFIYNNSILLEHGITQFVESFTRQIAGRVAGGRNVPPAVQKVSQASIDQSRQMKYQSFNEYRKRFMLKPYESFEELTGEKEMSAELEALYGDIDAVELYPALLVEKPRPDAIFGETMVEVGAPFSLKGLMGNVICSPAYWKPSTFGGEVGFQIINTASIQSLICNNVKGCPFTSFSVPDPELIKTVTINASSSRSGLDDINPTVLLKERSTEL
Description: Inhibition of COX2 in human blood assessed as TxB2 level after 1 hr by enzyme immunoassay.

Molecules are shown by their SMILES.

Consider `CSc1nc(-c2ccccc2)c(-c2ccc(S(C)(=O)=O)cc2)[nH]1`, for which the IC50 stood at 60 nM.
For `CSc1nc(-c2ccc(Cl)cc2)c(-c2ccc(S(C)(=O)=O)cc2)[nH]1` the value was 100 nM; for `CCS(=O)(=O)c1nc(-c2ccc(F)cc2)c(-c2ccc(S(C)(=O)=O)cc2)[nH]1`, 310 nM; for `CCSc1nc(-c2ccccc2)c(-c2ccc(S(C)(=O)=O)cc2)[nH]1`, 50 nM.
Take `CS(=O)(=O)c1ccc(-c2[nH]c(S(C)(=O)=O)nc2-c2ccccc2)cc1`: the IC50 came out at 280 nM.
As to `CSc1nc(-c2ccc(F)cc2)c(-c2ccc(S(C)(=O)=O)cc2)[nH]1`, the IC50 is 70 nM.
For `CS(=O)(=O)c1ccc(-c2[nH]c(S(C)(=O)=O)nc2-c2ccc(Cl)cc2)cc1` the value was 310 nM; for `CS(=O)(=O)c1ccc(-c2[nH]c(S(C)(=O)=O)nc2-c2ccc(F)cc2)cc1`, 280 nM; for `CCSc1nc(-c2ccc(F)cc2)c(-c2ccc(S(C)(=O)=O)cc2)[nH]1`, 80 nM.
In the case of `CCSc1nc(-c2ccc(Cl)cc2)c(-c2ccc(S(C)(=O)=O)cc2)[nH]1`, the IC50 was found to be 110 nM.
As for `CCS(=O)(=O)c1nc(-c2ccc(Cl)cc2)c(-c2ccc(S(C)(=O)=O)cc2)[nH]1`, the IC50 was 320 nM.
For `CCS(=O)(=O)c1nc(-c2ccccc2)c(-c2ccc(S(C)(=O)=O)cc2)[nH]1`, the IC50 turned out to be 240 nM.
